Measured values reported in ChEMBL document CHEMBL1201862, “PubChem BioAssay data set” (2004).
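Briefly, cells in 96-well plates were exposed to five compound concentrations for 48 h, and endpoints were estimated by linear interpolation. GI50 = concentration required for 50% inhibition of growth.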 Activity calls are given as the source filed them. No stated cut-off is given here; in the data, active = GI50 up to about 1.1 µM and inactive = higher.

Experiments:
Assay in all cases: DTP human tumour cell line panel, 48 h
786-0 = system: 786-0
A498 = system: A498
A549 = system: A549
ACHN = system: ACHN
CAKI-1 = system: CAKI-1
COLO 205 = system: COLO 205
DU-145 = system: DU-145
EKVX = system: EKVX
HCC 2998 = system: HCC 2998
HCT-116 = system: HCT-116
HCT-15 = system: HCT-15
HL-60 = system: HL-60
HOP-62 = system: HOP-62
HOP-92 = system: HOP-92
HT-29 = system: HT-29
Hs-578T = system: Hs-578T
IGROV-1 = system: IGROV-1
K562 = system: K562
KM12 = system: KM12
LOX IMVI = system: LOX IMVI
M14 = system: M14
MCF7 = system: MCF7
MDA-MB-435 = system: MDA-MB-435
MDA-N = system: MDA-N
Malme-3M = system: Malme-3M
NCI-H226 = system: NCI-H226
NCI-H23 = system: NCI-H23
NCI-H460 = system: NCI-H460
NCI-H522 = system: NCI-H522
NCI/ADR-RES = system: NCI/ADR-RES
OVCAR-3 = system: OVCAR-3
OVCAR-4 = system: OVCAR-4
OVCAR-5 = system: OVCAR-5
OVCAR-8 = system: OVCAR-8
PC-3 = system: PC-3
RPMI-8226 = system: RPMI-8226
RXF 393 = system: RXF 393
SF-268 = system: SF-268
SF-295 = system: SF-295
SF-539 = system: SF-539
SK-MEL-28 = system: SK-MEL-28
SK-MEL-2 = system: SK-MEL-2
SK-MEL-5 = system: SK-MEL-5
SK-OV-3 = system: SK-OV-3
SN12C = system: SN12C
SNB-19 = system: SNB-19
SNB-75 = system: SNB-75
SR = system: SR
SW-620 = system: SW-620
T47D = system: T47D
TK-10 = system: TK-10
U-251 = system: U-251
UACC-257 = system: UACC-257
UACC-62 = system: UACC-62
UO-31 = system: UO-31
CCRF-CEM = system: CCRF-CEM
MDA-MB-231 = system: MDA-MB-231
MOLT-4 = system: MOLT-4

CCOP(=O)(OCC)C1(O)CC(n2cc(C)c(=O)[nH]c2=O)OC1CO (centres undefined)
GI50 (786-0): > 100 µM (inactive) | GI50 (A498): > 100 µM (inactive) | GI50 (A549): > 100 µM (inactive) | GI50 (ACHN): > 100 µM (inactive) | GI50 (CAKI-1): > 100 µM (inactive) | GI50 (COLO 205): > 100 µM (inactive) | GI50 (DU-145): > 100 µM (inactive) | GI50 (EKVX): > 100 µM (inactive) | GI50 (HCC 2998): > 100 µM (inactive) | GI50 (HCT-116): > 100 µM (inactive) | GI50 (HCT-15): > 100 µM | GI50 (HL-60): > 100 µM (inactive) | GI50 (HOP-62): > 100 µM (inactive) | GI50 (HOP-92): > 100 µM (inactive) | GI50 (HT-29): > 100 µM (inactive) | GI50 (Hs-578T): > 100 µM (inactive) | GI50 (IGROV-1): > 100 µM (inactive) | GI50 (K562): > 100 µM (inactive) | GI50 (KM12): > 100 µM (inactive) | GI50 (LOX IMVI): > 100 µM (inactive) | GI50 (M14): > 100 µM (inactive) | GI50 (MCF7): > 100 µM (inactive) | GI50 (MDA-MB-435): > 100 µM (inactive) | GI50 (MDA-N): > 100 µM (inactive) | GI50 (Malme-3M): > 100 µM (inactive) | GI50 (NCI-H226): > 100 µM (inactive) | GI50 (NCI-H23): > 100 µM (inactive) | GI50 (NCI-H460): > 100 µM (inactive) | GI50 (NCI-H522): > 100 µM (inactive) | GI50 (NCI/ADR-RES): > 100 µM (inactive) | GI50 (OVCAR-3): > 100 µM (inactive) | GI50 (OVCAR-4): > 100 µM (inactive) | GI50 (OVCAR-5): > 100 µM (inactive) | GI50 (OVCAR-8): > 100 µM (inactive) | GI50 (PC-3): > 100 µM (inactive) | GI50 (RPMI-8226): > 100 µM (inactive) | GI50 (RXF 393): > 100 µM (inactive) | GI50 (SF-268): > 100 µM (inactive) | GI50 (SF-295): > 100 µM (inactive) | GI50 (SF-539): > 100 µM (inactive) | GI50 (SK-MEL-28): > 100 µM (inactive) | GI50 (SK-MEL-2): > 100 µM (inactive) | GI50 (SK-MEL-5): > 100 µM (inactive) | GI50 (SK-OV-3): > 100 µM (inactive) | GI50 (SN12C): > 100 µM (inactive) | GI50 (SNB-19): > 100 µM (inactive) | GI50 (SNB-75): > 100 µM (inactive) | GI50 (SR): > 100 µM (inactive) | GI50 (SW-620): > 100 µM (inactive) | GI50 (T47D): > 100 µM (inactive) | GI50 (TK-10): > 100 µM (inactive) | GI50 (U-251): > 100 µM (inactive) | GI50 (UACC-257): > 100 µM (inactive) | GI50 (UACC-62): > 100 µM (inactive) | GI50 (UO-31): > 100 µM (inactive)

CCOC(=O)/C=C(/C(=O)OCC)n1cc(C)c(=O)n(Cc2cn(CCCCOC(C)=O)nn2)c1=O
GI50 (786-0): 6.49 µM (inactive) | GI50 (A549): 27 µM (inactive) | GI50 (ACHN): 5.09 µM (inactive) | GI50 (CAKI-1): 2.84 µM (inactive) | GI50 (CCRF-CEM): 0.363 µM (active) | GI50 (COLO 205): 3.55 µM (inactive) | GI50 (DU-145): 34.4 µM (inactive) | GI50 (EKVX): 10.7 µM (inactive) | GI50 (HCC 2998): 18.3 µM (inactive) | GI50 (HCT-116): 22.7 µM (inactive) | GI50 (HCT-15): 4.76 µM | GI50 (HOP-62): 33.6 µM (inactive) | GI50 (HOP-92): 1.21 µM (inactive) | GI50 (HT-29): 8.05 µM (inactive) | GI50 (Hs-578T): 23.2 µM (inactive) | GI50 (IGROV-1): 15.2 µM (inactive) | GI50 (K562): 4.14 µM (inactive) | GI50 (KM12): 15.5 µM (inactive) | GI50 (LOX IMVI): 17.7 µM (inactive) | GI50 (MCF7): 6.3 µM (inactive) | GI50 (MDA-MB-231): 27.6 µM (inactive) | GI50 (MDA-MB-435): 10.7 µM (inactive) | GI50 (MDA-N): 35 µM (inactive) | GI50 (MOLT-4): 5.05 µM (inactive) | GI50 (NCI-H226): 18.4 µM (inactive) | GI50 (NCI-H23): 16.5 µM (inactive) | GI50 (NCI-H460): 10.7 µM (inactive) | GI50 (NCI-H522): 1.88 µM (inactive) | GI50 (NCI/ADR-RES): 23.6 µM (inactive) | GI50 (OVCAR-3): 14.7 µM (inactive) | GI50 (OVCAR-4): 19.7 µM (inactive) | GI50 (OVCAR-5): 18.1 µM (inactive) | GI50 (OVCAR-8): 12.9 µM (inactive) | GI50 (PC-3): 19.7 µM (inactive) | GI50 (RPMI-8226): 5.13 µM (inactive) | GI50 (RXF 393): 17.6 µM (inactive) | GI50 (SF-268): 17.1 µM (inactive) | GI50 (SF-295): 33.1 µM (inactive) | GI50 (SF-539): 4.54 µM (inactive) | GI50 (SK-MEL-28): 13.4 µM (inactive) | GI50 (SK-MEL-2): 20.1 µM (inactive) | GI50 (SK-MEL-5): 25.6 µM (inactive) | GI50 (SK-OV-3): > 100 µM (inactive) | GI50 (SN12C): 23.6 µM (inactive) | GI50 (SNB-19): 18.8 µM (inactive) | GI50 (SNB-75): 16.3 µM (inactive) | GI50 (SR): 4.27 µM (inactive) | GI50 (SW-620): 3.03 µM (inactive) | GI50 (T47D): 9.46 µM (inactive) | GI50 (TK-10): 4.67 µM (inactive) | GI50 (U-251): 18.5 µM (inactive) | GI50 (UACC-257): 19.8 µM (inactive) | GI50 (UACC-62): 14.7 µM (inactive) | GI50 (UO-31): 15.1 µM (inactive)
